Like-named read-outs stand apart in the source and are kept apart here.
Assays:
[1] = system: subcutaneous HT-29 xenografts; assay: TGI experiment, CPT11 with Compound 5 (Example 12); type: in vivo
Procedure: (§1) Female nude mice were inoculated subcutaneously with 4×10^6 HT-29 tumor cells in 1×PBS (100 μL). Twelve days later, mice were randomized into groups of 7 with an average tumor volume in each group of approximately 200 mm^3. […] Tumor size and animal body weight were measured over the course of the study on the days indicated with data points in FIG. 13. Tumor volume was calculated using the formula: volume=(width^2×length)/2. No mortalities occurred over the course of this study.

[2] = Tolerability of CPT11 with Compound 2 started 12, 24 or 48 hours post CPT11 (Example 4); type: in vivo, nude mice; conditions: single agents: CPT11 100 mg/kg IP Q10Dx2; Compound 2 25 mg/kg PO BID 3 days per cycle; naive mice
[3] = system: subcutaneous HT-29 xenografts; assay: TGI/tolerability experiment, CPT11 with simultaneous or 24 hour delayed Compound 1 (Example 3); type: in vivo, nude mice; conditions: single agents: CPT11 100 mg/kg IP single dose; Compound 1 50 mg/kg PO BID 3 days
Procedure: as §1, with “5×10^6” for “4×10^6”, “6” for “7”, “250” for “200”, “5.” for “13.”, “volume=(width^2×length)/2.” for “volume=(width^2×length)/2. No mortalities occurred over the course of this study.”

[4] = system: subcutaneous HT-29 xenografts; conditions: mouse, in vivo, ip, 100 mg/kg
Procedure: as §1, with “5×10^6” for “4×10^6”, “Fourteen” for “Twelve”, “8” for “7”, “260” for “200”, “12.” for “13.”, “volume=(width^2×length)/2.” for “volume=(width^2×length)/2. No mortalities occurred over the course of this study.”

Phosphorylation of cdc2 [5] = assay: Inhibition of CPT11 induced phosphorylation of cdc2 in HT-29 tumors, immunoblot (Example 6); type: in vivo, nude mice; conditions: 3 consecutive days BID versus single dose, 25 mg/kg PO, from 24 hours after CPT11 100 mg/kg
Procedure: Female nude mice were inoculated subcutaneously with 5×10^6 HT-29 tumor cells in 1×PBS (100 μL). Twenty four days later, mice were randomized into groups of 3 with an average tumor volume in each group of approximately 450 mm^3. […] Compound 2 was given as a single dose, or alternatively for 3 consecutive days on a BID schedule. All tumors from animals dosed with Compound 2 were harvested 2 hours post dose. Phosphorylation of cdc2 was assessed by immunoblot and normalized to total ERK expression. Results are expressed as POC.

[6] = system: subcutaneous HT-29 xenografts; assay: TGI experiment, CPT11 with Compound 2 for 1 or 3 days (Example 5); type: in vivo; conditions: single agents: CPT11 100 mg/kg IP Q10Dx2; Compound 2 25 mg/kg PO BID
Procedure: as §1, with “5×10^6” for “4×10^6”, “8” for “7”, “215” for “200”, “6.” for “13.”

[7] = Compound 2 exposure after single dose or 3 days dosing (Example 6); type: in vivo, nude mice; conditions: 25 mg/kg PO, from 24 hours after CPT11 100 mg/kg; t-test>0.05
Phosphorylation of cdc2 [8] = assay: Inhibition of CPT11 induced phosphorylation of cdc2 in HT-29 tumors, immunoblot (Example 7); type: in vivo, nude mice; conditions: 5, 10 or 25 mg/kg PO BID 3 consecutive days from 24 hours after CPT11 100 mg/kg; HT-29 tumors harvested 96 hours post CPT11
Procedure: Female nude mice were inoculated subcutaneously with 5×10^6 HT-29 tumor cells in 1×PBS (100 μL). Twenty nine days later, mice were randomized into groups of 3 with an average tumor volume in each group of approximately 500 mm^3. […] Compound 5 was given as a single dose at 25 mg/kg, or alternatively 5, 10, or 25 mg/kg doses were given for 3 consecutive days on BID schedules. […] Phosphorylation of cdc2 was assessed by immunoblot and normalized to total ERK expression. Results are expressed as POC.

[9] = single agents: CPT11 100 mg/kg IP Q10Dx2, Compound 5 PO BID (dose of single-agent group not given)

SMILES: CCc1c2c(nc3ccc(OC(=O)N4CCC(N5CCCCC5)CC4)cc13)-c1cc3c(c(=O)n1C2)COC(=O)[C@]3(O)CC [CPT11, irinotecan]
- Day of Maximum % Body Weight Loss ([1]; mouse, in vivo, 100 mg/kg): 18 days
- Maximum % Body Weight Loss ([1]; mouse, in vivo, 100 mg/kg): 6.3%
- % Mortality [2]: 0%
- Day of Maximum % Body Weight Loss [2]: 14 days
- Maximum % Body Weight Loss [2]: 3.4%
- % Mortality [3]: 0%
- Maximum % Body Weight Loss [4]: 0.08%

SMILES: N[C@@H]1CCCN(c2c(Br)cnc3[nH]cc(NC(=O)c4cccnc4)c23)C1 [Compound 1, (R)—N-(4-(3-aminopiperidin-1-yl)-5-bromo-1H-pyrrolo[2,3-b]pyridin-3-yl)nicotinamide]
- Inhibition of CPT11 induced phospho-cdc2 with extended dosing (Phosphorylation of cdc2 [5]): Superior Inhibition

SMILES: CC(C)C(=O)Nc1c[nH]c2ncc(Br)c(N3CCC[C@@H](N)C3)c12 [Compound 2, (R)—N-(4-(3-aminopiperidin-1-yl)-5-bromo-1H-pyrrolo[2,3-b]pyridin-3-yl)isobutyramide]
- Day of Maximum % Body Weight Loss [6]: 3 days
- Maximum % Body Weight Loss [6]: 7.2%
- Day of Maximum % Body Weight Loss [2]: 17 days
- Maximum % Body Weight Loss [2]: 0.3%
- Compound 2 exposure, single dose versus administration for 3 days [7]: not statistically different

SMILES: N[C@@H]1CCCN(c2c(Br)cnc3[nH]cc(NC(=O)C4CC4)c23)C1 [Compound 5, (R)—N-(4-(3-aminopiperidin-1-yl)-5-bromo-1H-pyrrolo[2,3-b]pyridin-3-yl)cyclopropanecarboxamide]
- Day of Maximum % Body Weight Loss [1, 9]: 18 days
- Maximum % Body Weight Loss [1, 9]: 2.5%
- Inhibition of CPT11 induced phospho-cdc2 with extended dosing (Phosphorylation of cdc2 [8]): Dose-Related Inhibition

From patent publication US9155726B2, “Method of treatment using checkpoint kinase 1 inhibitors” (ARRAY BIOPHARMA INC., priority 2009, dated 2015)
